Reference: PMC5354814, “In silico and in vitro drug screening identifies new therapeutic approaches for Ewing sarcoma” (Oncotarget, 2016)

Legend:
A673 = assay: Hits validation, dose-response cell proliferation (CellTiter-Glo); type: cell-based; conditions: Homo sapiens, A673; 12-point dose-response 50 μmol/L to 1 nmol/L, mean ± SD
Procedure: (§1) For hits validation and combination study, cells were harvested and aliquoted into 384-well plates at concentrations of 750–1,500 cells per well in a total of 20 μl/well using a Matrix Wellmate (Thermo Scientific). Five μl of culture media containing either vehicles or drug were added to each well the next day (drug concentrations range from 1 nmol/L to 50 μmol/L). For combination study, selected drugs were archived in robotically accessible plates, to which media was added in preparation for addition to master plates by a Nimbus 96 liquid-dispensing workstation (Hamilton). Liquid transfers to dilution and assay plates were handled using the same workstation. Each 384-well master plate contained four 9 by 9 dose-matrix blocks, with eight serial two-fold dilutions (concentrations range from 7.8 nmol/L to 1 μmol/L). Additional wells were reserved for untreated, and vehicle-treated control wells. Cell proliferation was evaluated using Cell-Titer Glo® reagents (Promega). IC50 values were determined for each drug using SigmaPlot (Systat Software). The combination index values were calculated using SigmaPlot (Systat Software) and CompuSyn.

CHLA-258 = assay: as above; type: cell-based; conditions: 12-point dose-response 50 μmol/L to 1 nmol/L, mean ± SD
Procedure: as §1

COG-E-352 = assay: as above; type: cell-based; conditions: 12-point dose-response 50 μmol/L to 1 nmol/L, mean ± SD
Procedure: as §1

Hs 822.T. = assay: as above; type: cell-based; conditions: control cell line, 12-point dose-response, mean ± SD
Procedure: as §1

Hs 863.T. = assay: as above; type: cell-based; conditions: control cell line, 12-point dose-response, mean ± SD
Procedure: as §1

RD-ES = assay: as above; type: cell-based; conditions: RD-ES; 12-point dose-response 50 μmol/L to 1 nmol/L, mean ± SD
Procedure: as §1

SK-ES-1 = assay: as above; type: cell-based; conditions: Homo sapiens, SK-ES1; 12-point dose-response 50 μmol/L to 1 nmol/L, mean ± SD
Procedure: as §1

TC-71 = assay: as above; type: cell-based; conditions: TC-71; 12-point dose-response 50 μmol/L to 1 nmol/L, mean ± SD
Procedure: as §1

Hs 919.T. = assay: as above; type: cell-based; conditions: control cell line, 12-point dose-response, mean ± SD
Procedure: These drugs were chosen based on their known mechanisms and safety profiles. We also tested the synergy between these drug hits (Supplementary Figures S6–S11). […] We evaluated the anti-proliferation effect in combination treatments using the EWS and control cell lines.
as §1

EWS cell lines = assay: Combination study (dose matrix, CellTiter-Glo, combination index); type: cell-based
Procedure: Next, the predicted and library screened drugs were extensively validated. The in vitro activities of each drug hit were evaluated in an expanded panel of EWS cell lines (either the EWS/FLI1 or the EWS/ERG fusion) (Table 1) and confirmed employing 12-point dose-response curves ranging from 50 μmol/L to 1 nmol/L, with triplicate sampling (Table 3). As mentioned above, one of the most notable drug hits discovered through both the in silico and in vitro drug screening approaches was auranofin. Based on this finding, we subsequently screened auranofin against six other marketed or investigational anticancer drug hits (carfilzomib, elesclomol, bortezomib, geldanamycin, AUY922, and ganetespib, Supplementary Figures S1–S5 and Figure 2). These drugs were chosen based on their known mechanisms and safety profiles. […] We evaluated the anti-proliferation effect in combination treatments using the EWS and control cell lines. […]
For hits validation and combination study, cells were harvested and aliquoted into 384-well plates at concentrations of 750–1,500 cells per well in a total of 20 μl/well using a Matrix Wellmate (Thermo Scientific). […] Cell proliferation was evaluated using Cell-Titer Glo® reagents (Promega). IC50 values were determined for each drug using SigmaPlot (Systat Software). The combination index values were calculated using SigmaPlot (Systat Software) and CompuSyn.

[1] = test system: cancer cells with EWS-FLI1 mutations; design: method as in GDSC database, cancerrxgene.org; conditions: ref GDSC database, cancerrxgene.org; cited from earlier work
A673 cells = assay: In vivo xenograft mouse model; conditions: auranofin 12 mg/kg i.p. 5 days per week, ganetespib 150 mg/kg i.v. once weekly; p < 0.05
Procedure: To assess the antitumor activity of auranofin (using an alternative delivery approach), ganetespib and the combination treatments in vivo, we generated a xenograft nude mouse model by injecting A673 cells intramuscularly proximal to the tibia. Based on the dose tolerance and pharmacokinetic studies described above, we administered auranofin at a tolerable daily i.p. dose that achieved adequate systemic drug exposure. Auranofin was administered with a dose of 12 mg/kg through an i.p. injection once a day for 5 days per week, and ganetespib was administered with a dose of 150 mg/kg through an i.v. injection once weekly. Mice that grew palpable tumors were randomized into four groups: vehicle, auranofin-only, ganetespib-only, and the combination.
The guidelines adopted by the Institutional Animal Care and Use Committee of the University of Kansas Medical Center (KUMC-IACUC) were followed in all performed procedures. All experimental protocols were approved by KUMC-IACUC. Homozygous athymic nude (Foxn1nu/Foxn1nu) female mice at the age of 4-weeks were purchased from Jackson Laboratories. After one week, one million A673 cells in PBS (pH = 7.3) were injected into mice. The cells were injected intramuscularly proximal to the tibia and treatment started after 15 days of inoculation. Mice developing palpable tumors were divided into 4 arms and treated for up to 18 days: vehicle (20% Cremophor RH40 and 80% D5W iv and 0.5% HPMC K4M ip), auranofin (12 mg/kg i.p. injection 5 days per week), ganetespib (150 mg/kg i.v. injection once weekly), as well as auranofin and ganetespib combined. Mice were evaluated for overall health and weighed every week. When tumor size impeded mobility, mice were sacrificed and necropsies were performed. Tumors were then dissected, measured and processed for analysis. The liver, kidneys, and spleen were also snap frozen in liquid nitrogen or fixed in 10% neutral buffered formalin and paraffin embedded for toxicity studies. Tissues were then subjected to hematoxylin and eosin (H&E) staining and immunohistochemical staining. […]

In the case of `CCNC(=O)c1noc(-c2cc(C(C)C)c(O)cc2O)c1-c1ccc(CN2CCOCC2)cc1` [AUY922], the IC50 (A673) is reported as 0.02 ± 0.002 µM, the IC50 (CHLA-258) is reported as < 0.003 µM and the IC50 (COG-E-352) is reported as < 0.003 µM. The IC50 (Hs 822.T.) was > 20 µM, the IC50 (Hs 863.T.) was > 20 µM and the IC50 (RD-ES) was 0.009 ± 0.001 µM. For the same compound, the IC50 (SK-ES-1) was 0.03 ± 0.002 µM, the IC50 (TC-71) was < 0.003 µM and the IC50 (Hs 919.T.) was > 20 µM. For the same compound, the “synergy in combination with auranofin” value (EWS cell lines) was “highly synergistic”.

With `CN(NC(=O)CC(=O)NN(C)C(=S)c1ccccc1)C(=S)c1ccccc1` [Elesclomol] the IC50 (A673) was 0.006 ± 0.006 µM, the IC50 (CHLA-258) was < 0.003 µM and the IC50 (COG-E-352) was 0.007 ± 0.002 µM. The IC50 (Hs 822.T.) was > 20 µM, the IC50 (Hs 863.T.) was > 20 µM and the IC50 (RD-ES) was 0.05 ± 0.06 µM. For the same compound, the IC50 (SK-ES-1) was 0.01 ± 0.001 µM, the IC50 (TC-71) was < 0.003 µM and the IC50 (Hs 919.T.) was > 20 µM. For the same compound, the “sensitivity of cancer cells with EWS-FLI1 mutations compared with wild-type” value [1] was “preferentially sensitive”.

For `CC(C)c1cc(-c2n[nH]c(=O)n2-c2ccc3c(ccn3C)c2)c(O)cc1O` [ganetespib], the IC50 (A673) was 0.04 ± 0.01 µM, the IC50 (CHLA-258) was < 0.003 µM and the IC50 (COG-E-352) was < 0.003 µM. For the same compound, the IC50 (Hs 822.T.) was > 20 µM, the IC50 (Hs 863.T.) was > 20 µM and the IC50 (RD-ES) was 0.02 ± 0.02 µM. The IC50 (SK-ES-1) was 0.01 ± 0.001 µM, the IC50 (TC-71) was < 0.003 µM and the IC50 (Hs 919.T.) was > 20 µM. The “synergy in combination with auranofin” value (EWS cell lines) was “highly synergistic” and the “survival rate versus control group” value (A673 cells) was “significantly increased the survival rate”.
